From US20130101684A1, “Compounds, Compositions, And Methods For Reducing Or Eliminating Bitter Taste” (Chromocell Corporation, priority 2010, published 2013)
Read-outs that look alike come from different tables or passages of the source.

Assays:
Assay type in all cases: in vivo, humans
[1] = system: bitter taste of an aqueous solution of KCl; assay: Sip and spit taste test of aqueous KCl test solutions, bitterness rated 0-15 against KCl solution standards; conditions: aqueous KCl 4.85 g/L, 1% EtOH, human panel, vs KCl solution standard, dash = at none of the tested conc.
Description: Edible KCl solution compositions (“KCl test solutions”) were prepared by first dissolving varying amounts of the test compounds in an amount of ethanol or water (depending on the solubility of the compound) to create a 5 mg/mL stock compound solution. An amount of this stock compound solution is then added to an aqueous KCl solution. Enough EtOH is then added to the resulting stock compound/KCl solution so that the final KCl test solution contains 1% EtOH. KCl solution standards were similarly prepared by dissolving various amounts of KCl in water and ethanol without adding any test compound. […] The effect of the test compounds on the perception of the bitter taste of an aqueous solution of KCl in humans was evaluated using a “sip and Spit” test as follows. A set of KCl solutions standards was developed and each standard solution was assigned a bitterness taste score of 0-15 (corresponding to aqueous KCl concentrations of 0 mM-120 mM). Panelists were trained to recognize these standards. In addition, before each day of testing, panelists were tested to see if they could determine differences in taste between the standard solutions, if a panelist was unable to recognize a change in KCl concentration, they were excluded from the panel for that day. In a blind taste test, panelists were asked to compare the bitter taste of a small quantity (e.g. 8 ml) of each of the KCl Test Solutions to the taste of a KCl solution standard, without swallowing (see, e.g., Table 1). Specifically, panelists were asked to rate the bitterness of each KCl Test Solution on a scale of 0-15 using the same scale developed for the KCl solution standards. Each sample was tested in 2-4 discrete taste test experiments. Panelists were asked to rinse with water, eat a cracker, and wait approximately 10 minutes between samples.

[2] = system: bitter taste of KCl foodstuff slurries; assay: Two-alternative forced choice (2AFC) sip and spit test of KCl turkey foodstuff slurries; conditions: turkey slurry with KCl 1.6%, 1% EtOH, 2AFC vs KCl slurry standard, dash = at none of the tested conc.; for minimal effective concentration: Homo sapiens
Description: Edible KCl food compositions (“KCl test foodstuff slurries”) were prepared as follows. Dehydrated, salt-free turkey powder was weighed and mixed with various amounts of KCl and/or NaCl and then solubilized with boiling water to create a homogenized solubilized turkey slurry. Varying amounts of the test compounds were dissolved in an amount of ethanol or water (depending on the solubility of the compound) to create a 5 mg/mL stock compound solution. An amount of this stock compound solution was then added to the turkey slurry. Enough EtOH is then added to the resulting stock compound/turkey slurry so that the slurry contains 1% EtOH. The slurry was again homogenized by boiling and mixing and allowed to cool to yield the final KCl test foodstuff slurry for taste testing. KCl foodstuff slurry standards were similarly prepared without any test compound. […] The effect of the test compounds on the perception of the bitter taste of KCl foodstuff slurries in humans was evaluated using a two-alternative-forced-choice “sip and spit” test as follows. In a blind taste test, panelists received two portions of turkey slurry—one portion being the KCl foodstuff slurry standard and the other being one of the KCl test foodstuff slurries (each prepared as described in Example 5). The panelists tasted each of the portions by sipping and spitting. Each sample was tested in 2-4 discrete taste test experiments. Panelists were asked to rinse with water, eat a cracker, and wait about 10 minutes between samples. In each case, the panelists were asked to compare the bitter taste of the two turkey samples to each other (i.e. panelists were asked to indicate which sample was less bitter).

[3] = system: bitter taste of an aqueous solution of potassium lactate; assay: Sip and spit taste test of aqueous potassium lactate test solutions; conditions: aqueous potassium lactate (KLac) 41 g/L, 1% EtOH, human panel, dash = at none of the tested conc.
Description: A set of KCl solutions standards was developed and each standard solution was assigned a bitterness taste score of 0-15 (corresponding to aqueous KCl concentrations of 0 mM-120 mM). Panelists were trained to recognize these standards. In addition, before each day of testing, panelists were tested to see if they could determine differences in taste between the standard solutions, if a panelist was unable to recognize a change in KCl concentration, they were excluded from the panel for that day. In a blind taste test, panelists were asked to compare the bitter taste of a small quantity (e.g. 8 ml) of each of the KCl Test Solutions to the taste of a KCl solution standard, without swallowing (see, e.g., Table 1). Specifically, panelists were asked to rate the bitterness of each KCl Test Solution on a scale of 0-15 using the same scale developed for the KCl solution standards. Each sample was tested in 2-4 discrete taste test experiments. Panelists were asked to rinse with water, eat a cracker, and wait approximately 10 minutes between samples. Edible potassium lactate solution compositions (“potassium lactate test solutions”) were prepared by first dissolving varying amounts of the test compounds in an amount of ethanol or water (depending on the solubility of the compound) to create a 5 mg/mL stock compound solution. An amount of this stock compound solution is then added to an aqueous potassium lactate solution. Enough EtOH is then added to the resulting stock compound/potassium lactate solution so that the final potassium lactate test solution contains 1% EtOH. Potassium lactate solution standards were similarly prepared by dissolving various amounts of potassium lactate in water and ethanol without adding any test compound. […] The effect of the test compounds on the perception of the bitter taste of an aqueous solution of potassium lactate in humans was evaluated using the “sip and spit” test described in Example 2.

[4] = read-out: Conc. Where Decrease in Bitter Taste Was Discerned
[5] = read-out: Conc. at Which At Least 50% of Panelist Discerned Decrease in Bitter Taste
[6] = read-out: Conc. Where Decrease in Bitter Taste Discerned and p ≦ 0.1
[7] = read-out: Conc. at Which At Least 50% of Panelist Discerned Decrease in Bitter Taste and p ≦ 0.1

Q: CCCC(=O)Nc1ccc(C)c(Cl)c1 [Compound 50] was tested. Which minimal effective concentration [1, 4] did it give?
A: 1 µg/mL

Q: With COC(=O)c1cccc2c1NC(c1ccc(Cl)cc1)C1CC=CC21 (centres unmarked) [Compound 42] as the compound, how does the minimal effective concentration [2, 5] read?
A: 1 µg/mL

Q: For CCOc1cc(CNc2cc(C)ccc2C)ccc1OC [Compound 12], which minimal effective concentration [2, 5] is on record?
A: 10 µg/mL

Q: What about the minimal effective concentration [1, 6] of the same compound?
A: 10 µg/mL

Q: How did the minimal effective concentration [2, 5] turn out when COc1cc(/C=N/c2ccccc2C)ccc1O [Compound 2] was run?
A: 10 µg/mL

Q: And the minimal effective concentration [1, 6]?
A: 1 µg/mL

Q: With Cc1c2ccccc2nc2c(F)c(N3CCN(C)CC3)c(F)c(F)c12 [Compound 44] as the compound, how does the minimal effective concentration [2, 5] read?
A: 10 µg/mL

Q: What about the minimal effective concentration [1, 6] of the same compound?
A: 10 µg/mL

Q: And the minimal effective concentration [1, 4]?
A: 10 µg/mL

Q: What about the minimal effective concentration [3, 6] of the same compound?
A: 10 µg/mL

Q: What does the source list for CCn1ccc(C(=O)Nc2cc(OC)c(OC)cc2C(=O)OC)n1 [Compound 35]?
A: minimal effective concentration [2, 5]: 10 µg/mL; minimal effective concentration [1, 6]: 1 µg/mL; minimal effective concentration [1, 4]: 1 µg/mL

Q: COc1cccc(CNc2cc(C)ccc2C)c1OC [Compound 15] was tested. Which minimal effective concentration [2, 5] did it give?
A: 10 µg/mL

Q: What about the minimal effective concentration [2, 7] of the same compound?
A: 10 µg/mL

Q: What about the minimal effective concentration [1, 6] of the same compound?
A: 10 µg/mL

Q: With COC(=O)c1ccc(C)c(NC(=O)c2c(Cl)cnn2C)c1 [Compound 31] as the compound, how does the “Conc. at Which At Least 50% of Panelist Discerned Decrease in Bitter Taste” value [2] read?
A: 1 ppm

Q: With COc1ccc(NCc2ccccc2C)cc1OC [Compound 20] as the compound, how does the minimal effective concentration [1, 6] read?
A: 1 µg/mL

Q: What about the minimal effective concentration [3, 6] of the same compound?
A: 5 µg/mL

Q: Which results are given for Cc1nc2c(C)ccc(C)c2c(O)c1CN1CCN(c2ccccc2)CC1 [Compound 47]?
A: minimal effective concentration [2, 5]: 10 µg/mL; minimal effective concentration [2, 7]: 10 µg/mL

Q: How did the minimal effective concentration [1, 4] turn out when O=C(O)c1cc(Br)cc2c1NC(c1ccc(Cl)cc1)C1CC=CC21 (centres unmarked) [Compound 43] was run?
A: 1 µg/mL

Q: How did the minimal effective concentration [1, 6] turn out when CCOc1cc(CNc2ccccc2SC)ccc1OC [Compound 4] was run?
A: 10 µg/mL

Q: CCOc1ccc(CNc2ccccc2C)cc1OC [Compound 3] was tested. Which minimal effective concentration [1, 6] did it give?
A: 2 µg/mL

Q: What about the minimal effective concentration [1, 4] of the same compound?
A: 2 µg/mL

Q: What about the minimal effective concentration [3, 6] of the same compound?
A: 1 µg/mL

Q: Which minimal effective concentration [1, 4] does the source give for CCOc1cc(CNc2cccc(Cl)c2C)ccc1OC [Compound 6] here?
A: 1 µg/mL

Q: COc1cc(CNc2cccc(C)c2C)ccc1OCc1ccccc1 [Compound 22] was tested. Which minimal effective concentration [1, 6] did it give?
A: 1 µg/mL

Q: Cc1ccc(NC(=O)CCOc2ccccc2)c(C)c1 [Compound 54] was tested. Which minimal effective concentration [2, 5] did it give?
A: 1 µg/mL

Q: How did the “Conc. at Which At Least 50% of Panelist Discerned Decrease in Bitter Taste” value [2] turn out when CCn1ncc(Cl)c1C(=O)Nc1cc(Cl)ccc1Cl [Compound 28] was run?
A: 10 ppm

Q: With Cc1nc2c(C)cccc2c(O)c1CN1CCN(c2ccccc2)CC1 [Compound 48] as the compound, how does the minimal effective concentration [2, 5] read?
A: 10 µg/mL

Q: And the minimal effective concentration [1, 6]?
A: 1 µg/mL

Q: And the minimal effective concentration [3, 6]?
A: 1 µg/mL

Q: And the minimal effective concentration [3, 4]?
A: 1 µg/mL

Q: CCOc1ccc(CNc2ccc(C)cc2C)cc1OC [Compound 17] was tested. Which “Conc. Where Decrease in Bitter Taste Was Discerned” value [1] did it give?
A: 1 ppm

Q: And the “Conc. Where Decrease in Bitter Taste Was Discerned” value [3]?
A: 1 ppm

Q: For COc1cc(CO)ccc1OCc1ccccc1C [Compound 1], which minimal effective concentration [2, 5] is on record?
A: 1 µg/mL

Q: With COC(=O)c1ccccc1NC(=O)c1c(Cl)cnn1C [Compound 27] as the compound, how does the minimal effective concentration [2, 5] read?
A: 30 µg/mL

Q: Which results are given for COc1ccc(OC)c(CNc2cc(C)ccc2C)c1 [Compound 7]?
A: Conc. at Which At Least 50% of Panelist Discerned Decrease in Bitter Taste [2]: 1 ppm; Conc. Where Decrease in Bitter Taste Discerned and p ≦ 0.1 [1]: 1 ppm; Conc. Where Decrease in Bitter Taste Was Discerned [1]: 1 ppm

Q: How did the minimal effective concentration [1, 4] turn out when Cn1ncc(Cl)c1C(=O)Nc1ccccc1C(N)=O [Compound 33] was run?
A: 1 µg/mL

Q: With CCn1ccc(C(=O)Nc2ccccc2C(=O)OC)n1 [Compound 36] as the compound, how does the minimal effective concentration [2, 5] read?
A: 10 µg/mL

Q: And the minimal effective concentration [1, 6]?
A: 10 µg/mL

Q: Which minimal effective concentration [2, 7] does the source give for CC(=O)Oc1ccc(C2Nc3c(C(=O)O)cccc3C3C=CCC32)cc1 (centres unmarked) [Compound 39] here?
A: 10 µg/mL

Q: Which “Conc. Where Decrease in Bitter Taste Discerned and p ≦ 0.1” value [1] does the source give for CCOc1cc(CNc2ccccc2)ccc1OC [Compound 10] here?
A: 1 ppm

Q: Which “Conc. Where Decrease in Bitter Taste Discerned and p ≦ 0.1” value [1] does the source give for COc1ccc(CNc2cc(C)ccc2C)cc1OC [Compound 14] here?
A: 1 ppm

Q: What about the “Conc. Where Decrease in Bitter Taste Was Discerned” value [3] of the same compound?
A: 5 ppm

Q: For COc1ccc(CNc2ccc(Br)cc2C)cc1OC [Compound 8], which minimal effective concentration [1, 4] is on record?
A: 1 µg/mL

Q: CCn1ncc(Cl)c1C(=O)Nc1cccc(Cl)c1Cl [Compound 29] was tested. Which “Conc. at Which At Least 50% of Panelist Discerned Decrease in Bitter Taste” value [2] did it give?
A: 1 ppm

Q: And the “Conc. at Which At Least 50% of Panelist Discerned Decrease in Bitter Taste and p ≦ 0.1” value [2]?
A: 1 ppm

Q: And the “Conc. Where Decrease in Bitter Taste Discerned and p ≦ 0.1” value [1]?
A: 10 ppm

Q: And the “Conc. Where Decrease in Bitter Taste Was Discerned” value [3]?
A: 5 ppm

Q: For COc1ccccc1CNc1cc(C)ccc1OC [Compound 19], which minimal effective concentration [2, 7] is on record?
A: 10 µg/mL

Q: And the minimal effective concentration [1, 6]?
A: 1 µg/mL

Q: And the minimal effective concentration [1, 4]?
A: 1 µg/mL

Q: For COc1ccc(NC(=O)CCOc2cccc(C)c2)cc1 [Compound 52], which “Conc. at Which At Least 50% of Panelist Discerned Decrease in Bitter Taste and p ≦ 0.1” value [2] is on record?
A: 10 ppm

Q: What about the “Conc. Where Decrease in Bitter Taste Discerned and p ≦ 0.1” value [1] of the same compound?
A: 10 ppm

Q: What about the “Conc. Where Decrease in Bitter Taste Discerned and p ≦ 0.1” value [3] of the same compound?
A: 30 ppm

Q: Which results are given for Cc1ccc2nc3c(F)c(N4CCOCC4)c(F)c(F)c3c(C)c2c1 [Compound 46]?
A: minimal effective concentration [2, 5]: 1 µg/mL; minimal effective concentration [1, 6]: 1 µg/mL; minimal effective concentration [3, 4]: 30 µg/mL

Q: Which minimal effective concentration [2, 5] does the source give for Cc1c2ccccc2nc2c(F)c(N3CCCC3)c(F)c(F)c12 [Compound 45] here?
A: 1 µg/mL

Q: What about the minimal effective concentration [1, 6] of the same compound?
A: 0.1 µg/mL

Q: For COc1cccc(CNc2cccc(C)c2)c1OC [Compound 5], which minimal effective concentration [1, 4] is on record?
A: 10 µg/mL
